Source: publication PMC6008768, “Physiologically Based Pharmacokinetic Modelling with Dynamic PET Data to Study the In Vivo Effects of Transporter Inhibition on Hepatobiliary Clearance in Mice” (Contrast Media & Molecular Imaging, 2018)
“And” between values parts separate entries of the source, which are not always exact repeats. Identical values can stand only once. Like-named read-outs stand apart in the source and are kept apart here.

Key:
[1] = Plasma kinetics: biexponential fit of image-derived CPlasma(t) from dynamic PET; type: in vivo, mice
Protocol: (§1) For PET/CT acquisition, mice were anaesthetized with 3 to 5% isoflurane in air/oxygen (1 : 1), at a respiratory rate of ~60 per min as described elsewhere. Cyclosporine (50 mg/kg), to inhibit cyclosporine-sensitive transporters, was injected into a tail vein (i.v.), 30 to 50 min before tracer injection while the respective tracer was synthesized. The injected cyclosporine solution was a dilution with water for injection (1 : 1) of Sandimmun® (Novartis Pharmaceuticals, Basel, Switzerland; 50 mg/ml cyclosporine in 26.1% ethanol/65% PEG-35 castor oil). Vehicle (13% ethanol, 2 ml/kg) was injected as a control as indicated. Immediately after radiosynthesis quality control, the tracer was injected i.v. at a dose between 3 and 14 MBq (<20 nmol/kg) in 100 to 200 μL saline containing 5% ethanol. Injections lasted ~10 s. The mouse was transferred to a SuperArgus PET/CT scanner (Sedecal, Madrid, Spain, formerly Vista eXplore) with an axial field of view of 4.8 cm and a spatial resolution of 1.6–1.7 mm (full width at half maximum; [23]). Body temperature and respiratory rate were controlled as previously described. The PET scan was started in List mode 60 s after tracer injection. After 60 min scan duration, computed tomography (CT) data were recorded for anatomical orientation.
The blood C(t) was generated with PMOD from the PET images as follows. A cropped cube of 10 × 10 × 10 mm^3 including the image data of the heart was divided into 12 segments with differing kinetics, using the PSEG module of PMOD. C(t) of the segment covering the left heart ventricle according to the PET (first time frame)/CT images was used as an estimation of the blood C(t) (CBlood(t)). CBlood(t) was divided by (1 − hematocrit) to get CPlasma(t) and fitted to a biexponential infusion function as shown in (1) CPlasmat=A0/T×V1×λ1×V1/Vz−λ1/λ1λz−λ1×1−e^−λ1×tt≤T+Tt>T×e^−λ1×t−Tt>T+λ1×V1/Vz−λz/λzλ1−λz×1−e^−λz×tt≤T+Tt>T×e^−λz×t−Tt>T, where A(0) is the radioactivity dose, T is the duration of the injection (10 s infusion), V1 is the volume of the central compartment (initial volume of distribution of the tracer after injection), Vz is the volume of distribution during the terminal phase, and λ1 and λz are the respective rate constants of the biexponential function and t the time. The term [t(t ≤ T) + T(t > T)] equals t if t ≤ T but T if t > T. The term (t − T)(t > T) equals t − T if t > T, otherwise zero. The hematocrit was assumed 0.44 [25, 26].
Total CL was calculated as the sum of CLH and CLR and compared to the CL estimated from the CPlasma(t) biexponential fits (see (1)), as CL = λz × Vz. The extraction ratio EH for liver was estimated as ratio between CLH and QP,H, with QP,H from Davies and Morris.

[2] = In vivo PBPK compartment modelling of dynamic whole-body PET data; design: species or system mice; details: for average CLH when kBG was fitted / calculated transintestinal clearance: kBG fitted
Source text: C(t) of liver, kidneys, and peripheral tissue and A(t) of gallbladder and intestines were derived from manually drawn volumes of interest according to the PET/CT images, using the VOI functions of PMOD. Regions of interest are shown for a representative scan in Supplementary Figure 1. C(t) data were transformed to A(t) by multiplication with the reported average volume of the respective organ or tissue. These were 0.065 cm^3 per g BW for liver and 0.0164 cm^3 per g BW for kidneys. The volume of the “peripheral tissue” (VTissue) with C(t) determined from the left shoulder was estimated during the fitting procedure. It was 0.74 ± 0.08 cm^3 per g BW for [^11C]MT107 control scans and 0.79 ± 0.10 cm^3/g for [^11C]MT107 scans after cyclosporine treatment, without significant difference (p = 0.47).
A(t) of the individual regions of interest were fitted with custom-written MATLAB scripts (MathWorks, Natick, MA) according to the compartment model shown in Figure 2, using the ode45 function to solve the differential equation system. Tracer input was simulated as a constant input of duration T (A(0)/T). Fitting was performed with the solver fmincon and the function MultiStart with 128 random sets of bounded initial parameters. Calculations were performed by parallel computing on 40 cores of the Euler cluster of ETH Zurich (https://scicomp.ethz.ch/). The initial parameters were best guesses from supervised simulations. Initial lower bounds were 0 for the rate constants of mass transfer (k). For k from plasma to liver and kidneys, the initial upper bounds were set according to the reported values for blood flow, corrected for (1 − hematocrit) to get the plasma flow (QP) divided by the plasma volume (VPlasma = vBlood × (1 − hematocrit) × BW). The QP for liver (QP,H) was 1.0 ml/min and for kidneys (QP,R) 0.73 ml/min.
Figure 2 Model for the pharmacokinetic analysis. A(0) is the dose, and T is the infusion duration (10 s). Initial A(t = 0) for all compartments (indicated by black boxes) were zero. The parameters k are mass transfer rate constants with the unit 1/time. The indices denote the source and target compartments, respectively (e.g., kBH1, k for the mass transfer from blood plasma to hepatic compartment “Liver 1”). A(t) of peripheral tissue was best fit with two sets of rate constants for reversible transfer. The sum of the two plasma-to-tissue rate constants is kBT. Several models were evaluated and the results were visually inspected. […] For [^11C]MT107 scans, kBG (grey arrow) was set to 0. Tissue blood fractions (vBlood multiplied with the organ or tissue volume and CBlood(t)) were added to the compartments where applicable. B, blood plasma; G, gallbladder plus intestine combined; H, liver; R, kidneys; T, peripheral tissue; U, urine.
During the fitting procedure, the sum of weighted squared residuals of all A(t) was minimized. For weighting, the residuals of the first two data points of plasma, liver, and kidney were multiplied with 5, to force the fits through these initial data points. After several rounds, the best estimates with the lowest sum of squared residuals were used per tracer to define the final upper and lower bounds as 0.5-fold the minimal respective fit parameter and 2-fold the highest respective fit parameter per tracer. […] Under these refined conditions, one calculation (one scan) with 128 random sets of initial values required 10–120 min.
CLH was calculated according to (2) CLH=kBH1×kH1H2/kH1B+kH1H2×VPlasma, where the rate constants k are defined in the model in Figure 2. Note that at steady state this equals CLH calculated from kH2G.
The term 1/(1 + kR1R2/kR2R1) corrects for the mass ratio between R1 and the combined R1 and R2.
Total CL was calculated as the sum of CLH and CLR and compared to the CL estimated from the CPlasma(t) biexponential fits (see (1)), as CL = λz × Vz. […]

[3] = PET images: radioactivity distribution; type: in vivo, mice; details: for radioactivity distribution in PET images: control conditions; for change of radioactivity distribution in PET images: cyclosporine 50 mg/kg i.v. before tracer, compared to scans without cyclosporine
Protocol: as §1
The PET data were reconstructed into 10 or 12 time frames by 2D Fourier rebinning/ordered-subsets expectation maximization (FORE/OSEM), 2 iterations, and 16 subsets, correcting for singles and randoms but not attenuation. Images were generated with the software PMOD v3.8 (PMOD, Zurich, Switzerland). All radioactivities were decay-corrected to the time point of tracer injection.

[4] = cited from earlier work
[5] = design: method as in PMID 24834996; details: cited from earlier work
[6] = system: human costimulatory molecule CD80 (hCD80); design: method as in Taddio et al., in preparation; details: ref Taddio et al., in preparation; cited from earlier work
[7] = system: hCD80-positive xenografts; design: method as in PMID 24834996; details: previous work; cited from earlier work
[8] = design: method as in PMID 24834996; details: 30 min after administration; cited from earlier work
[9] = after cyclosporine 50 mg/kg i.v.
[10] = after cyclosporine 50 mg/kg i.v., 30 to 50 min before tracer
[11] = control, tracer i.v., 60 min PET scan
[12] = control, for [11C]AM7 CLH includes kBG × VPlasma, for [11C]MT107 kBG = 0
[13] = cyclosporine 50 mg/kg i.v. versus control

[11CH3]N1CCC(NC(=O)c2ccc(-n3[nH]c4c(nnc5c(F)cccc54)c3=O)cc2)CC1 [[^11C]AM7]
Vz, volume of distribution during the terminal phase [1, 9]: 8.0 mL | λ1 rate constant of biexponential function [1, 9]: 0.204 min⁻¹ | λz rate constant of biexponential function [1, 9]: 0.0206 min⁻¹ | V1, volume of the central compartment [1, 10]: 4.2 mL | Vz, volume of distribution during the terminal phase ([1]; control): 10.3 mL and 9.4 mL | λ1 rate constant of biexponential function ([1]; control): 0.196 min⁻¹ and 0.295 min⁻¹ | λz rate constant of biexponential function ([1]; control): 0.0234 min⁻¹ and 0.0270 min⁻¹ | V1, volume of the central compartment [1, 11]: 3.0 mL and 2.3 mL | CLR, renal clearance ([2]; control): 161 µL/min and 179 µL/min | DTissue, distribution coefficient between tissue and plasma at equilibrium ([2]; control): 0.11 and 0.12 | CLH, hepatobiliary clearance [2, 12]: 103 µL/min and 120 µL/min | radioactivity distribution in PET images [3]: accumulated in the liver, gallbladder, intestines, and the urinary bladder | change of radioactivity distribution in PET images [3]: increased in kidneys and peripheral tissue and reduced in liver, gallbladder, and intestines | logD (pH 7.4) [4]: 0.1 | unbound fraction in plasma (fu) [5]: 0.02 | affinity to hCD80 [6]: low nanomolar range | accumulation in hCD80-positive xenografts [7]: negligible | radiometabolites in blood plasma [8]: No radiometabolites were detected

[11CH3]N1CCC(NC(=O)c2ccc(-n3[nH]c4c(c(-c5cccc(C(F)(F)F)c5)nc5c(F)cccc54)c3=O)cc2)CC1 [[^11C]MT107]
Vz, volume of distribution during the terminal phase [1, 9]: 3.33 ± 0.80 mL | λ1 rate constant of biexponential function [1, 9]: 0.139 ± 0.021 min⁻¹ | λz rate constant of biexponential function [1, 9]: 0.0140 ± 0.0034^∗∗b 1/min | V1, volume of the central compartment [1, 10]: 1.38 ± 0.11 mL | Vz, volume of distribution during the terminal phase ([1]; control): 2.66 ± 0.51 mL | λ1 rate constant of biexponential function ([1]; control): 0.121 ± 0.011 min⁻¹ | λz rate constant of biexponential function ([1]; control): 0.0210 ± 0.0011 min⁻¹ | V1, volume of the central compartment [1, 11]: 1.49 ± 0.19 mL | increase of Vz after cyclosporine administration ([1]; not significant (p = 0.21)): 1.25 fold | kGH1, rate constant of reabsorption from intestines into liver compartment H1 ([2]; absence of cyclosporine): 0.0077 ± 0.0033 min⁻¹ | CLR, renal clearance [2, 9]: 19.9 ± 5.1 µL/min | DTissue, distribution coefficient between tissue and plasma at equilibrium [2, 9]: 0.14 ± 0.03 | CLH, hepatobiliary clearance ([2]; after cyclosporine 50 mg/kg i.v., kBG = 0): 17.1 ± 5.6 µl/min and 17.1 ± 5.6^∗b µl/min | average CLH when kBG was fitted ([2]; after cyclosporine administration): 9.3 ± 4.2 µL/min | increase of CLR after cyclosporine administration ([2]; average, not significant (p = 0.069)): 1.7 fold | CLR, renal clearance ([2]; control): 11.9 ± 5.3 µL/min | DTissue, distribution coefficient between tissue and plasma at equilibrium ([2]; control): 0.10 ± 0.02 | EH, extraction ratio for liver (CLH/QP,H) ([2]; control): 0.035 ± 0.011 | total CL from modelling lower than from biexponential fit of CPlasma(t) ([2]; control group): 16% | VTissue, volume of the peripheral tissue estimated during fitting ([2]; control scans): 0.74 ± 0.08 cm^3 per g BW | CLH, hepatobiliary clearance [2, 12]: 35.2 ± 10.9 µL/min | average CLH when kBG was fitted ([2]; control): 25.4 ± 6 µL/min | calculated transintestinal clearance ([2]; control): 10.5 ± 11.3 µL/min | CLH after cyclosporine relative to value in the absence of cyclosporine [2, 13]: 48% | EH after cyclosporine relative to value in the absence of cyclosporine [2, 13]: 48% | total CL from modelling lower than from biexponential fit of CPlasma(t) ([2]; cyclosporine group): 17% | calculated transintestinal clearance ([2]; cyclosporine group): 7.8 ± 4.1 µL/min | increase of average DTissue after cyclosporine administration (factor) ([2]; not significant (p = 0.078)): 1.34 | kGH1, rate constant of reabsorption from intestines into liver compartment H1 ([2]; presence of cyclosporine): 0.0080 ± 0.0038 min⁻¹ | VTissue, volume of the peripheral tissue estimated during fitting ([2]; scans after cyclosporine treatment): 0.79 ± 0.10 cm^3/g | radioactivity distribution in PET images [3]: higher tissue radioactivity compared to [^11C]AM7 but still high abdominal radioactivity accumulation | change of radioactivity distribution in PET images [3]: increased radioactivity uptake in the kidneys and peripheral tissue and reduction in the liver | logD (pH 7.4) ([4]; ref Taddio et al., in preparation): 2.0 | affinity to hCD80 [6]: low nanomolar range
